In patent US8338607B2, “Cyclic amine compounds and agents for pest control” (Nippon Soda Co., Ltd., priority 2005, dated 2012):

Experiments:
Tetranychus urticae = assay: Effectiveness against Tetranychus urticae (common bean leaf, wettable powder drug solution); format: in vivo; settings: adult female Tetranychus urticae resistant to organophosphorus pesticides; 125 ppm; examined 3 days after the application; 25° C., 65% humidity
Panonychus citri = assay: Effectiveness against Panonychus citri (mandarin orange leaf, emulsion applied with rotary spreading tower); format: in vivo; settings: adult female Panonychus citri; 125 ppm; adults removed 3 days after the application; whether eggs could grow to adults examined on the 11th day
Method: 10 adult female Panonychus citri were inoculated on the leaf of a mandarin orange, which was placed in a petri dish. After the inoculation, the drug solution, which was prepared by following the method of the emulsion shown in Example 2 of the drugs and by diluting with water to achieve the compound concentration of 125 ppm, was applied using a rotary spreading tower. The dish was placed in a temperature-controlled room where the temperature and humidity were set to 25° C. and 65% respectively, adults were removed 3 days after the application, and whether eggs laid during these 3 days could grow to become adults was examined on the 11th day.

| SMILES | insecticidal rate (adulticidal rate) (Tetranychus urticae) | insecticidal rate (Panonychus citri) |
| --- | --- | --- |
| FC(F)(F)c1ccc(OC2CC3CCC(C2)N3c2ccc(C(F)(F)F)cn2)nc1 (stereo not drawn) [Compound 2-3, 3α-(5-trifluoromethyl-2-pyridyloxy)-8-(5-trifluoromethyl-pyridine-2-yl)-8-azabicyclo[3.2.1]octane] | 100% |  |
| CCCOc1cc(C(F)(F)F)ccc1OC1CC2CCC(C1)N2c1ccc(C(F)(F)F)c(F)c1 (stereo not drawn) [Compound 4-70] | 100% | 100% |
